Reference: patent US20230002397A1, “SMALL MOLECULE DEGRADERS OF HELIOS AND METODS OF USE” (DANA-FARBER CANCER INSTITUTE, INC., priority 2019, published 2023)
Where two headings read alike, the source gives them in different places.

Biological target: T1, IKZF2 (Homo sapiens, UniProt Q96SW2+Q9UKS7)
T1 construct: CRISPR/Cas9—mediated insertion of the HiBiT peptide tag (Promega™) to the N-terminus of the IKZF2 gene locus; endogenous in cells; host or cells: MOLT4 cells, with CRISPR/Cas9 knock-in of HiBiT at the endogenous IKZF2 locus
T1 sequence (Q9UKS7 whole entry): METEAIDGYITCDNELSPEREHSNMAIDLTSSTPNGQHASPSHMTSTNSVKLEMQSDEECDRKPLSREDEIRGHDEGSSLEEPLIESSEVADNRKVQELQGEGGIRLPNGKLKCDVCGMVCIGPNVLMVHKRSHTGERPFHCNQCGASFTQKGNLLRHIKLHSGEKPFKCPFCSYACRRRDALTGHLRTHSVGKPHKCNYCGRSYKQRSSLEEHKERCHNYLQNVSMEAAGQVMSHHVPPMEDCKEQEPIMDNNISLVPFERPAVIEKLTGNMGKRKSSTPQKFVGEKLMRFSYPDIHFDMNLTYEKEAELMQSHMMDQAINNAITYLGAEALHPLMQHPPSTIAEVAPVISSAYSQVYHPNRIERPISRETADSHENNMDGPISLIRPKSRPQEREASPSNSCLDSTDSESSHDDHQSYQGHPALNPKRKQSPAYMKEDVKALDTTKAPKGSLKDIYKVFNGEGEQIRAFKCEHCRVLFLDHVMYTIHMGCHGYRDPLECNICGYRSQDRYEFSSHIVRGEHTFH
T1 sequence (Q96SW2 whole entry): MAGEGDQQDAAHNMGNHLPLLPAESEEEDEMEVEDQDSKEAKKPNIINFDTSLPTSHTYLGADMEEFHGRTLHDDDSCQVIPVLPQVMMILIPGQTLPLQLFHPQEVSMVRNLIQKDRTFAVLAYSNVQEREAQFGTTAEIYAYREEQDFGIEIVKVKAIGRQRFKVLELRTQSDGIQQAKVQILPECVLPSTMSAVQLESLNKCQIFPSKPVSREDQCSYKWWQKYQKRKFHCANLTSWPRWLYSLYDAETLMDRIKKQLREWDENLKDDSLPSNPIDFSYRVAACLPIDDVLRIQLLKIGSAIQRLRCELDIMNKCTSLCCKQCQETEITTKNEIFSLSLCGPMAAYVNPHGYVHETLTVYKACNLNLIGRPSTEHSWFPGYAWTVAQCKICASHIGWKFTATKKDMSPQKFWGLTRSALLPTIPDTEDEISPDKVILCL
T1 sequence (Q16531 whole entry partner): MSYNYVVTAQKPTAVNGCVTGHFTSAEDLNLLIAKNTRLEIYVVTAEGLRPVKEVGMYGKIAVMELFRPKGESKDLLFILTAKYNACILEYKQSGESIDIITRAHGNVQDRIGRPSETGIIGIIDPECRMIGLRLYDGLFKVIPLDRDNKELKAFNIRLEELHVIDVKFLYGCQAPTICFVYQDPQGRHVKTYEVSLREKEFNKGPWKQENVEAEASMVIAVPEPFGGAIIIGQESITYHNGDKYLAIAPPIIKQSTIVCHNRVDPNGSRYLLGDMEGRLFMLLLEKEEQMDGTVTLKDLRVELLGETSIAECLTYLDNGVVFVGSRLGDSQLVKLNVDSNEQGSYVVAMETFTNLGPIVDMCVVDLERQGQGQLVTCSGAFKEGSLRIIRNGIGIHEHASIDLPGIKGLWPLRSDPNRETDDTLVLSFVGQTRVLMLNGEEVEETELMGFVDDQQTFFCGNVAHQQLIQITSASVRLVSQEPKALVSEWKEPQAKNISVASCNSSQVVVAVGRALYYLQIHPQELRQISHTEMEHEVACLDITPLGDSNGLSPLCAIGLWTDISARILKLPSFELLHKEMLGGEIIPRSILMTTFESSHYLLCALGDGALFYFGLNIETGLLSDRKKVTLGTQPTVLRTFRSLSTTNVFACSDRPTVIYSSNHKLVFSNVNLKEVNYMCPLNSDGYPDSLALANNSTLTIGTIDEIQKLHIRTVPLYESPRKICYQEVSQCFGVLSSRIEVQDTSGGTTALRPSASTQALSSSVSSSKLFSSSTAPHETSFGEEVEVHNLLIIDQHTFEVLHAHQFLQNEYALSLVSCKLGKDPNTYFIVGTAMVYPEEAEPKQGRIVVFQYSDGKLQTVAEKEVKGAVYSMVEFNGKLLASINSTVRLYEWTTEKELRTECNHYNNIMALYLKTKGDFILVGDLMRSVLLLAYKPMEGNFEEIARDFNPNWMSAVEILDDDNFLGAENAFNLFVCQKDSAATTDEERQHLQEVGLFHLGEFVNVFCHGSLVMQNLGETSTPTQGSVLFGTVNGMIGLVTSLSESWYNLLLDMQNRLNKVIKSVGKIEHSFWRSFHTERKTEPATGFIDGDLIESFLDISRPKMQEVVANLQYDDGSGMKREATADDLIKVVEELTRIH
Assay: HiBit-IKZF2 assay (HiBiT-Helios degradation in MOLT4 cells)
Format: cell-based
Details: for Dmax: 10 μM to 0.00026 μM; for DC50: concentration at which 50% of HiBiT-Helios degradation was achieved
Description: The HiBiT protein tagging system was applied to MOLT4 cells via a CRISPR/Cas9—mediated insertion of the HiBiT peptide tag (Promega™) to the N-terminus of the IKZF2 gene locus (Neon™ Transfection System). The resulting HiBiT-Helios stable cell line was treated with the following compounds in triplicates following a 13-point concentration scheme ranging from 10 μM to 0.00026 μM. At the indicated timepoints, the Nano-Glo® HiBiT Lytic Detection System (Promega™) was utilized for detecting bioluminescence of the HiBiT tag in treated cells: abundance of the tag is proportionate to the level of luminescence. Following normalization to DMSO, dose-response curves were plotted (GraphPad Prism) to determine the concentration points at which 50% of HiBiT-Helios degradation was achieved by each compound. The extent of degradation (range of luminescence) from the highest to lowest concentration points was calculated to determine the Dmax.

[1] = MOLT-4, extent of degradation from highest to lowest concentration, read-out: Dmax

In the case of `COc1cccc(CN2CCC(O)(c3ccc4c(c3)CN(C3CCC(=O)NC3=O)C4=O)CC2)c1` (stereo not shown) [Compound 261], the Dmax [1] is reported as over 70% and the DC50 is reported as under 10 nM.

For `O=C1CCC(N2Cc3cc(C4(O)CCN(Cc5cccc6cccnc56)CC4)ccc3C2=O)C(=O)N1` (stereo not shown) [Compound 280], the Dmax [1] was over 70% and the DC50 was 10 to 30 nM.

`O=C1CCC(N2Cc3cc(C4CCN(Cc5cccc(Nc6ncccn6)c5F)CC4)ccc3C2=O)C(=O)N1` (stereo not shown) [Compound 188] showed a Dmax [1] of 50 to 70% and a DC50 of under 10 nM.

With `CP(C)(=O)c1ccccc1NC(=O)c1cccc(CN2CCC(c3ccc4c(c3)CN(C3CCC(=O)NC3=O)C4=O)CC2)c1` (stereo not shown) [Compound 138] the Dmax [1] was 50 to 70% and the DC50 was under 10 nM.

For `O=C1CCC(N2Cc3cc(C4(O)CCN(Cc5ccc6c(c5)OCCCO6)CC4)ccc3C2=O)C(=O)N1` (stereo not shown) [Compound 272], the Dmax [1] was over 70% and the DC50 was under 10 nM.

Compound `O=C1CCC(N2Cc3cc(C4CCN(Cc5cccc(Nc6ncccn6)c5)CC4)ccc3C2=O)C(=O)N1` (stereo not shown) [Compound 149] has a Dmax [1] of 50 to 70% and a DC50 of under 10 nM.

`O=C1CCC(N2Cc3cc(C4(O)CCN(Cc5ccccc5-c5ccccc5)CC4)ccc3C2=O)C(=O)N1` (stereo not shown) [Compound 274] gave a Dmax [1] of 50 to 70% and a DC50 of under 10 nM.

With `O=C1CCC(N2Cc3cc(C4CCN(Cc5cc(Nc6ccccc6)ncn5)CC4)ccc3C2=O)C(=O)N1` (stereo not shown) [Compound 116] the Dmax [1] was 30 to 50% and the DC50 was 30 to 150 nM.

`O=C1CCC(N2Cc3cc(C4CCN(Cc5ccc6c(c5)C(=O)N(c5ccns5)C6)CC4)ccc3C2=O)C(=O)N1` (stereo not shown) [Compound 224] gave a Dmax [1] of over 70% and a DC50 of under 10 nM.

In the case of `O=C1CCC(N2Cc3cc(C4CCN(Cc5cccc(N6CCCCC6=O)c5)CC4)ccc3C2=O)C(=O)N1` (stereo not shown) [Compound 161], the Dmax [1] is reported as 30 to 50% and the DC50 is reported as 10 to 30 nM.

`O=C1CCC(N2Cc3cc(C4CCN(Cc5ccc(S(=O)(=O)N6CCc7ccccc76)cc5)CC4)ccc3C2=O)C(=O)N1` (stereo not shown) [Compound 167] gave a Dmax [1] of 50 to 70% and a DC50 of under 10 nM.

In the case of `O=C1CCC(N2Cc3cc(C4CCN(Cc5nccc(Nc6ccccc6)c5F)CC4)ccc3C2=O)C(=O)N1` (stereo not shown) [Compound 100], the Dmax [1] is reported as 50 to 70% and the DC50 is reported as 10 to 30 nM.

In the case of `O=C1CCC(N2Cc3cc(C4CCN(Cc5ccccc5N5Cc6ccccc6C5=O)CC4)ccc3C2=O)C(=O)N1` (stereo not shown) [Compound 117], the Dmax [1] is reported as 30 to 50% and the DC50 is reported as 30 to 150 nM.

`O=C1CCC(N2Cc3cc(C4(O)CCN(Cc5cccc(-c6nccs6)c5)CC4)ccc3C2=O)C(=O)N1` (stereo not shown) [Compound 281] gave a Dmax [1] of over 70% and a DC50 of under 10 nM.

With `Cc1ccnc(Nc2cccc(CN3CCC(c4ccc5c(c4)CN(C4CCC(=O)NC4=O)C5=O)CC3)c2F)n1` (stereo not shown) [Compound 231] the Dmax [1] was 50 to 70% and the DC50 was under 10 nM.

For `Cc1ccc(CN2CCC(O)(c3ccc4c(c3)CN(C3CCC(=O)NC3=O)C4=O)CC2)cc1` (stereo not shown) [Compound 266], the Dmax [1] was over 70% and the DC50 was under 10 nM.

`O=C1CCC(N2Cc3cc(C4(O)CCN(Cc5ccc6c(c5)C(=O)N(c5ccccn5)C6)CC4)ccc3C2=O)C(=O)N1` (stereo not shown) [Compound 220] was tested, and the Dmax [1] was over 70% and the DC50 was under 10 nM.

Compound `O=C1CCC(N2Cc3cc(C4CCN(Cc5ccc(Nc6ccccn6)cc5)CC4)ccc3C2=O)C(=O)N1` (stereo not shown) [Compound 145] has a Dmax [1] of 50 to 70% and a DC50 of 30 to 150 nM.

`O=C1CCC(N2Cc3cc(C4CCN(Cc5ccnc(Nc6ccccc6)c5)CC4)ccc3C2=O)C(=O)N1` (stereo not shown) [Compound 137] gave a Dmax [1] of 50 to 70% and a DC50 of under 10 nM.

`O=C1CCC(N2Cc3cc(C4(O)CCN(Cc5cccc(Cl)c5)CC4)ccc3C2=O)C(=O)N1` (stereo not shown) [Compound 207] was tested, and the Dmax [1] was over 70% and the DC50 was under 10 nM.

In the case of `O=C1CCC(N2Cc3cc(C4CCN(Cc5ccc(S(=O)(=O)N(c6ccccc6)C6COC6)cc5)CC4)ccc3C2=O)C(=O)N1` (stereo not shown) [Compound 165], the Dmax [1] is reported as 50 to 70% and the DC50 is reported as under 10 nM.

`O=C1CCC(N2Cc3cc(C4(O)CCN(Cc5cccnc5Oc5ccccc5)CC4)ccc3C2=O)C(=O)N1` (stereo not shown) [Compound 195] gave a Dmax [1] of 50 to 70% and a DC50 of under 10 nM.

Work on `O=C1CCC(N2Cc3cc(C4(O)CCN(Cc5ccc6c(c5)CCCO6)CC4)ccc3C2=O)C(=O)N1` (stereo not shown) [Compound 275] yielded a Dmax [1] of over 70% and a DC50 of under 10 nM.

In the case of `CN(c1ccccn1)S(=O)(=O)c1ccc(CN2CCC(c3ccc4c(c3)CN(C3CCC(=O)NC3=O)C4=O)CC2)cc1` (stereo not shown) [Compound 99], the Dmax [1] is reported as 30 to 50% and the DC50 is reported as 30 to 150 nM.

For `O=C1CCC(N2Cc3cc(C4CCN(Cc5cccc6c5CN(c5ccccn5)C6=O)CC4)ccc3C2=O)C(=O)N1` (stereo not shown) [Compound 124], the Dmax [1] was 50 to 70% and the DC50 was 10 to 30 nM.

`O=C1CCC(N2Cc3cc(C4(O)CCN(Cc5cccc(F)c5)CC4)ccc3C2=O)C(=O)N1` (stereo not shown) [Compound 257] gave a Dmax [1] of over 70% and a DC50 of under 10 nM.

Compound `O=C1CCC(N2Cc3cc(C4(O)CCN(Cc5ccccc5F)CC4)ccc3C2=O)C(=O)N1` (stereo not shown) [Compound 256] has a Dmax [1] of over 70% and a DC50 of under 10 nM.

Work on `O=C1CCC(N2Cc3cc(C4(O)CCN(Cc5ccccc5Oc5ccccc5)CC4)ccc3C2=O)C(=O)N1` (stereo not shown) [Compound 252] yielded a Dmax [1] of over 70% and a DC50 of under 10 nM.

For `CP(C)(=O)c1ccccc1Nc1cccc(CN2CCC(c3ccc4c(c3)CN(C3CCC(=O)NC3=O)C4=O)CC2)c1` (stereo not shown) [Compound 134], the Dmax [1] was 50 to 70% and the DC50 was under 10 nM.

`O=C1CCC(N2Cc3cc(C4CCN(Cc5cccc(Nc6cccnn6)c5)CC4)ccc3C2=O)C(=O)N1` (stereo not shown) [Compound 127] gave a Dmax [1] of 50 to 70% and a DC50 of 10 to 30 nM.

For `O=C1CCC(N2Cc3cc(C4(O)CCN(Cc5ccccc5C(F)(F)F)CC4)ccc3C2=O)C(=O)N1` (stereo not shown) [Compound 249], the Dmax [1] was over 70% and the DC50 was under 10 nM.

`O=C1CCC(N2Cc3cc(C4(O)CCN(Cc5cccc(-c6ccccc6)c5)CC4)ccc3C2=O)C(=O)N1` (stereo not shown) [Compound 273] was tested, and the Dmax [1] was over 70% and the DC50 was under 10 nM.

`O=C1CCC(N2Cc3cc(C4CCN(Cc5ccc(S(=O)(=O)N6CC7C(C6)C7(F)F)cc5)CC4)ccc3C2=O)C(=O)N1` (stereo not shown) [Compound 58] showed a Dmax [1] of 30 to 50% and a DC50 of 10 to 30 nM.

For `O=C1CCC(N2Cc3cc(C4(O)CCN(Cc5ccccc5Cl)CC4)ccc3C2=O)C(=O)N1` (stereo not shown) [Compound 267], the Dmax [1] was over 70% and the DC50 was under 10 nM.

In the case of `O=C1CCC(N2Cc3cc(C4(O)CCN(Cc5nc6ccccc6s5)CC4)ccc3C2=O)C(=O)N1` (stereo not shown) [Compound 260], the Dmax [1] is reported as 50 to 70% and the DC50 is reported as 10 to 30 nM.

`O=C1CCC(N2Cc3cc(C4CCN(Cc5cccc(N6Cc7ncccc7C6=O)c5)CC4)ccc3C2=O)C(=O)N1` (stereo not shown) [Compound 125] gave a Dmax [1] of 50 to 70% and a DC50 of under 10 nM.

With `O=C1CCC(N2Cc3cc(C4(O)CCN(Cc5ccc6ncn(-c7ccccc7)c(=O)c6c5)CC4)ccc3C2=O)C(=O)N1` (stereo not shown) [Compound 234] the DC50 was under 10 nM and the Dmax (extent of degradation from highest to lowest concentration) was “+++ (“+++” is >70%)”.

For `O=C1CCC(N2Cc3cc(C4(O)CCN(Cc5cccc(OC(F)F)c5)CC4)ccc3C2=O)C(=O)N1` (stereo not shown) [Compound 208], the Dmax [1] was over 70% and the DC50 was under 10 nM.

`O=C1CCC(N2Cc3cc(C4CCN(Cc5cccc(S(=O)(=O)N6CC7C(C6)C7(F)F)c5)CC4)ccc3C2=O)C(=O)N1` (stereo not shown) [Compound 59] was tested, and the Dmax [1] was 50 to 70% and the DC50 was under 10 nM.

With `N#Cc1ccc(CN2CCC(O)(c3ccc4c(c3)CN(C3CCC(=O)NC3=O)C4=O)CC2)cc1` (stereo not shown) [Compound 239] the Dmax [1] was over 70% and the DC50 was under 10 nM.

In the case of `O=C1CCC(N2Cc3cc(C4(O)CCN(Cc5ccc(Oc6ccccc6)cc5)CC4)ccc3C2=O)C(=O)N1` (stereo not shown) [Compound 253], the Dmax [1] is reported as 50 to 70% and the DC50 is reported as under 10 nM.

`O=C1CCC(N2Cc3cc(C4CCN(Cc5cccc(S(=O)(=O)N6CCC7(CC7)C6)c5)CC4)ccc3C2=O)C(=O)N1` (stereo not shown) [Compound 60] gave a Dmax [1] of 50 to 70% and a DC50 of 10 to 30 nM.

With `O=C1CCC(N2Cc3cc(C4CCN(Cc5ccc6c(c5)C(=O)N(c5ccccc5F)C6)CC4)ccc3C2=O)C(=O)N1` (stereo not shown) [Compound 174] the Dmax [1] was 50 to 70% and the DC50 was under 10 nM.

`O=C1CCC(N2Cc3cc(C4CCN(Cc5ccccc5C(=O)Nc5ccccc5)CC4)ccc3C2=O)C(=O)N1` (stereo not shown) [Compound 144] was tested, and the Dmax [1] was 50 to 70% and the DC50 was 10 to 30 nM.

`O=C1CCC(N2Cc3cc(C4(O)CCN(Cc5csc(-c6ccccc6)n5)CC4)ccc3C2=O)C(=O)N1` (stereo not shown) [Compound 33] showed a Dmax [1] of over 70% and a DC50 of under 10 nM.

In the case of `O=C1CCC(N2Cc3cc(C4CCN(Cc5ccc6c(c5)C(=O)N(c5ncccc5F)C6)CC4)ccc3C2=O)C(=O)N1` (stereo not shown) [Compound 221], the Dmax [1] is reported as 50 to 70% and the DC50 is reported as under 10 nM.

`O=C1CCC(N2Cc3cc(C4CCN(Cc5cnc(Nc6ccccc6)s5)CC4)ccc3C2=O)C(=O)N1` (stereo not shown) [Compound 148] showed a Dmax [1] of 50 to 70% and a DC50 of 10 to 30 nM.

Compound `O=C1CCC(N2Cc3cc(C4CCN(Cc5ccc(Nc6ccccc6)nc5)CC4)ccc3C2=O)C(=O)N1` (stereo not shown) [Compound 142] has a Dmax [1] of 50 to 70% and a DC50 of 10 to 30 nM.

With `O=C1CCC(N2Cc3cc(C4CCN(Cc5cccc(Nc6ccccc6)c5)CC4)ccc3C2=O)C(=O)N1` (stereo not shown) [Compound 46, 3-(1-oxo-5-(1-(3-(phenylamino)benzyl)piperidin-4-yl)isoindolin-2-yl)piperidine-2,6-dione] the Dmax [1] was 50 to 70% and the DC50 was under 10 nM.

For `CN(C(=O)c1ccccc1)c1ccc(CN2CCC(c3ccc4c(c3)CN(C3CCC(=O)NC3=O)C4=O)CC2)cc1` (stereo not shown) [Compound 170], the Dmax [1] was 50 to 70% and the DC50 was 10 to 30 nM.

For `O=C1CCC(N2Cc3cc(C4(O)CCN(Cc5ccc6c(c5)OC(F)(F)O6)CC4)ccc3C2=O)C(=O)N1` (stereo not shown) [Compound 271], the Dmax [1] was over 70% and the DC50 was under 10 nM.

`O=C1CCC(N2Cc3cc(C4(O)CCN(Cc5ccc(F)c(Cl)c5)CC4)ccc3C2=O)C(=O)N1` (stereo not shown) [Compound 255] gave a Dmax [1] of over 70% and a DC50 of under 10 nM.

`O=C1CCC(N2Cc3cc(C4CCN(Cc5cccc(N6Cc7cccnc7C6=O)c5)CC4)ccc3C2=O)C(=O)N1` (stereo not shown) [Compound 129] showed a Dmax [1] of 50 to 70% and a DC50 of 10 to 30 nM.
